For data set [1], the system named is Cynomolgous monkey apolipoprotein B mRNA. Put plainly: Apolipoprotein B mRNA in primary Cynomolgous monkey hepatocytes, real-time PCR. Format: cell-based. To be noted: for % Inhibition of apolipoprotein B mRNA: primary Cynomolgous monkey hepatocytes. The essentials:
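Primary cynomolgus hepatocytes treated with antisense oligonucleotides at 10, 50, 150 or 300 nM (some sets 10–150 nM) for 24 or 48 h, depending on the set. mRNA quantified by real-time PCR using human apoB and GAPDH primers/probes. Values are percent inhibition normalized to untreated cells, averaged over 2–6 experiments.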
(In general: Quantitative PCR measures a nucleic acid by following its amplification.)

The nature of data set [2]: Time course at two doses in female C57BL/6 mice (Example 49): AST and ALT levels. Type of data set: in vivo, mouse. As to the method: Female C57BL/6 mice were divided into two groups—one group receiving oligonucleotide treatment and control animals receiving saline treatment. After overnight fasting, mice were dosed intraperitoneally twice a week with saline or 25 mg/kg or 50 mg/kg of ISIS 281625 (SEQ ID NO: 224), ISIS 301012 (SEQ ID NO: 247), or ISIS 301027 (SEQ ID NO: 262). After 2 weeks, a blood sample was taken from the tail of the mice and evaluated for liver enzyme. After 4 weeks, and study termination, animals were sacrificed and evaluated for liver enzyme levels.

The test system of data set [3] is human apolipoprotein(a) mRNA. Put plainly: Apolipoprotein(a) mRNA expression in primary human hepatocytes, real-time PCR. Type of data set: cell-based. The note with it: 24 hours; for % Change in apolipoprotein(a) mRNA expression following antisense inhibition of apolipoprotein B: primary human hepatocytes; for expression of apolipoprotein(a) mRNA: human primary hepatocytes, 5, 10, 50 or 150 nM. The protocol:
Primary human hepatocytes (InVitro Technologies, Baltimore, Md.), cultured and transfected as described herein, were treated with 5, 10, 50 or 150 nM of ISIS 271009 (SEQ ID NO: 319), 281625 (SEQ ID NO: 224), 301012 (SEQ ID NO: 247) or 301027 (SEQ ID NO: 262). Cells were also treated with 50 or 150 nM of the control oligonucleotides ISIS 113529 (SEQ ID NO: 859) or ISIS 13650 (SEQ ID NO: 806). Untreated cells served as a control. Following 24 hours of oligonucleotide treatment, apolipoprotein(a) mRNA expression was measured by quantitative real-time PCR as described in other examples herein.
Probes and primers to human apolipoprotein(a) were designed to hybridize to a human apolipoprotein(a) sequence, using published sequence information (GenBank accession number NM_005577.1, incorporated herein as SEQ ID NO: 860). For human apolipoprotein(a) the PCR primers were: […]
forward primer: […] (SEQ ID NO: 861)
reverse primer: TGCGTCTGAGCATTGCGT (SEQ ID NO: 862) and the PCR probe was: FAM-[…]-TAMRA (SEQ ID NO: 863) where FAM is the fluorescent dye and TAMRA is the quencher dye.
Data are the average of three experiments and are expressed as percent inhibition relative to untreated controls.

The test system of another data set is apolipoprotein B protein. Nature of the data set: Apolipoprotein B protein secreted from primary Cynomolgous monkey hepatocytes, ELISA.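 On % Reduction in secreted apolipoprotein B protein: normalized to untreated control cells.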 Format: cell-based. To be noted: for % Reduction of monkey apolipoprotein B protein secretion / secretion of apolipoprotein B protein (ELISA): primary Cynomolgous hepatocytes; for % Reduction in secreted apolipoprotein B protein: primary Cynomolgous monkey hepatocytes. In outline: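 Primary cynomolgus hepatocytes treated with oligonucleotide at 150 and 300 nM, or 50 and 150 nM for some compounds; secreted apoB protein quantified by apoB-specific ELISA. Values are means of 3 experiments.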

[4] abbreviates: 25 mg/kg i.p. twice a week, 2 weeks.
Setting [5] is: 25 mg/kg i.p. twice a week, 4 weeks.
The mark [6] stands for this setting: 50 mg/kg i.p. twice a week, 2 weeks.
The mark [7] stands for this setting: 50 mg/kg i.p. twice a week, 4 weeks.
Where [8] appears, read: 50 nM (Table 49), "+" = secretion increased.
Where [9] appears, read: 150 nM (Table 49), "+" = secretion increased.
The mark [10] stands for this setting: 25 or 50 mg/kg (either dose) i.p. twice a week, after 2 weeks.
The mark [11] stands for this setting: higher dose (50 mg/kg), after 4 weeks.
The mark [12] stands for this setting: lower dose (25 mg/kg), after 4 weeks.

In the oligonucleotide strings, read from the 5' end, every base follows the letter of its sugar. An asterisk marks phosphorothioate; unmarked linkages are phosphodiester. Other units and linkages are bracketed, terminal groups are in braces. A string of capitals states the bases alone. e = 2'-O-(2-methoxyethyl) (MOE); [5mC] = 5-methylcytosine; d = 2'-deoxy (DNA)

This note sets out measurements from US7803930B2, “Antisense modulation of apolipoprotein B-expression” (Isis Pharmaceuticals, Inc., priority 2002, dated 2010).

“301027 (eG*e[5mC]*eT*e[5mC]*eA*d[5mC]*dT*dG*dT*dA*dT*dG*dG*dT*dT*eT*eT*eA*eT*e[5mC]; antisense) [compound 301027]”: the “% Inhibition of apolipoprotein B mRNA” value amounted to 40% in data set [1] (10 nM, 24 hours (Table 48)); 54% in data set [1] (50 nM, 24 hours (Table 48)); 67% in data set [1] (150 nM, 24 hours (Table 48)). Further, the ALT in data set [2] (setting [4]) was 27.2 IU/L; in data set [2] (setting [5]) it was 311.2 IU/L; in data set [2] (setting [6]) it was 34.8 IU/L; in data set [2] (setting [7]), 1194 IU/L. Moreover, the AST in data set [2] (setting [4]) is on record as 55.4 IU/L; in data set [2] (setting [5]) it was 537.6 IU/L; in data set [2] (setting [6]) it was 64 IU/L; in data set [2] (setting [7]) it was 1884 IU/L. Besides, the “% Change in apolipoprotein(a) mRNA expression following antisense inhibition of apolipoprotein B” value is on record as −16% in data set [3] (5 nM), −45% in data set [3] (10 nM), −39% in data set [3] (50 nM) and −43% in data set [3] (150 nM). Besides, the figures for the “% Reduction of monkey apolipoprotein B protein secretion” value in the data set on apolipoprotein B protein (setting [8]) and in the data set with apolipoprotein B protein (setting [9]) were 25% and 31%, respectively.

As to “113529 (antisense e[5mC]*eT*e[5mC]*eT*eT*dA*d[5mC]*dT*dG*dT*dG*d[5mC]*dT*dG*dT*eG*eG*eA*e[5mC]*eA) [compound 113529]”, the “% Inhibition of apolipoprotein B mRNA” value in data set [1] (150 nM, 24 hours) is recorded as 5%; in data set [1] (150 nM, 24 hours (Table 48)), 11%; in data set [1] (150 nM, 48 hours) it was 42%; in data set [1] (300 nM, 24 hours), 19%; in data set [1] (300 nM, 24 hours (Table 46)), 28%; in data set [1] (300 nM, 48 hours), 13%. The “% Change in apolipoprotein(a) mRNA expression following antisense inhibition of apolipoprotein B” value in data set [3] (50 nM) is given as “+14%”; in data set [3] (150 nM), −9%. For the same substance, the “% Reduction of monkey apolipoprotein B protein secretion” value turned out to be 12% in the data set with apolipoprotein B protein (150 nM (Table 47)) and 15% with apolipoprotein B protein (setting [9]). The “% Reduction in secreted apolipoprotein B protein” value with apolipoprotein B protein (150 nM, 24 hours) is given as 11%; in the data set on apolipoprotein B protein (150 nM, 48 hours), 18%; in the data set on apolipoprotein B protein (300 nM, 24 hours), 12%; in the data set on apolipoprotein B protein (300 nM, 48 hours), 8%.

“ISIS 281625: SEQ ID NO: 224, 2′-MOE gapmer targeted to human apolipoprotein B (antisense eA*eG*eG*eT*eT*dA*d[5mC]*d[5mC]*dA*dG*d[5mC]*d[5mC]*dA*d[5mC]*dA*eT*eG*e[5mC]*eA*eG)”: the “inhibition of apolipoprotein B mRNA expression” value in data set [1] (Cynomolgous monkey primary hepatocytes, 10, 50, 150 or 300 nM, 24 hours) is reported as “in a dose-dependent manner”. Further, the “AST and ALT levels” value in data set [2] (setting [10]) is “remained close to those of saline”. Moreover, the “AST and ALT levels over saline treated animals” value in data set [2] (setting [11]) is recorded as “large increase”; in data set [2] (setting [12]), “moderate increase”. The “expression of apolipoprotein(a) mRNA” value in data set [3] is on record as “decreased”. The “secretion of apolipoprotein B protein (ELISA)” value with apolipoprotein B protein (50 and 150 nM (statement after Table 49)) is “decrease”.

As to “ISIS 301027: SEQ ID NO: 262, 2′-MOE gapmer targeted to human apolipoprotein B (antisense eG*e[5mC]*eT*e[5mC]*eA*d[5mC]*dT*dG*dT*dA*dT*dG*dG*dT*dT*eT*eT*eA*eT*e[5mC])”, the “inhibition of apolipoprotein B mRNA expression” value in data set [1] (Cynomolgous monkey primary hepatocytes, 10, 50 and 150 nM, 24 hours) is listed as “in a dose-dependent manner”. Besides, the “AST and ALT levels” value in data set [2] (setting [10]) is “small increase”; in data set [2] (either dose, after 4 weeks), “huge increase”. The “expression of apolipoprotein(a) mRNA” value in data set [3] is reported as “decreased”.

With “301012 (eG*e[5mC]*e[5mC]*eT*e[5mC]*dA*dG*dT*d[5mC]*dT*dG*d[5mC]*dT*dT*d[5mC]*eG*e[5mC]*eA*e[5mC]*e[5mC]) [compound 301012]”, the “% Inhibition of apolipoprotein B mRNA” value was 24% in data set [1] (10 nM, 24 hours); 76% in data set [1] (10 nM, 48 hours); 60% in data set [1] (50 nM, 24 hours); 77% in data set [1] (50 nM, 48 hours); 56% in data set [1] (150 nM, 24 hours); 88% in data set [1] (150 nM, 48 hours). Besides, the “% Inhibition of apolipoprotein B mRNA” value in data set [1] (300 nM, 24 hours) is on record as 61%; in data set [1] (300 nM, 48 hours), 86%. Besides, the ALT is recorded as 22.4 IU/L in data set [2] (setting [4]), 24.8 IU/L in data set [2] (setting [5]), 23.2 IU/L in data set [2] (setting [6]) and 29.2 IU/L in data set [2] (setting [7]). Further, the AST in data set [2] (setting [4]) is on record as 37.2 IU/L; in data set [2] (setting [5]), 89.8 IU/L; in data set [2] (setting [6]), 38.4 IU/L; in data set [2] (setting [7]), 107.4 IU/L. For the same substance, the “% Change in apolipoprotein(a) mRNA expression following antisense inhibition of apolipoprotein B” value in data set [3] (5 nM) is listed as “+34%”; in data set [3] (10 nM), “+86%”; in data set [3] (50 nM), “+30%”; in data set [3] (150 nM), “+38%”. The “% Reduction in secreted apolipoprotein B protein” value in the data set on apolipoprotein B protein (150 nM, 24 hours) turned out to be 31%; in the data set on apolipoprotein B protein (150 nM, 48 hours) it was 25%; in the data set on apolipoprotein B protein (300 nM, 24 hours) it was 10%; in the data set on apolipoprotein B protein (300 nM, 48 hours), 17%.

As to “271009 (antisense eG*e[5mC]*e[5mC]*eT*e[5mC]*dA*dG*dT*d[5mC]*dT*dG*d[5mC]*dT*dT*d[5mC]*eG*e[5mC]*eG*e[5mC]*e[5mC]) [compound 271009]”, the “% Inhibition of apolipoprotein B mRNA” value was 42% in data set [1] (10 nM, 24 hours (Table 48)); 66% in data set [1] (50 nM, 24 hours (Table 48)); 69% in data set [1] (150 nM, 24 hours (Table 48)). The “% Change in apolipoprotein(a) mRNA expression following antisense inhibition of apolipoprotein B” value in data set [3] (5 nM) is “+70%”; in data set [3] (10 nM) it was “+31%”; in data set [3] (50 nM) it was “+25%”; in data set [3] (150 nM) it was −47%. In addition, the “% Reduction of monkey apolipoprotein B protein secretion” value is “+30%” in the data set with apolipoprotein B protein (setting [8]) and 26% in the data set with apolipoprotein B protein (setting [9]).

Take “ISIS 301012: SEQ ID NO: 247, antisense oligonucleotide targeted to human apolipoprotein B (antisense GCCTCAGTCTGCTTCGCACC; chemistry not given here)”: the “inhibition of apolipoprotein B mRNA expression” value in data set [1] (cynomolgous monkey primary hepatocytes, 10, 50, 150 or 300 nM) was “in a dose- and time-dependent manner”. Also, the “AST and ALT levels” value in data set [2] (setting [10]) is listed as “remained close to those of saline”. The entries for the “AST and ALT levels over saline treated animals” value in data set [2] (setting [11]) and in data set [2] (setting [12]) were “large increase” and “moderate increase”, respectively. The “expression of apolipoprotein(a) mRNA” value in data set [3] was “did not inhibit”. The “secretion of apolipoprotein B protein (ELISA)” value in the data set on apolipoprotein B protein (150 and 300 nM) is recorded as “decrease”.
